Experimental data as given in PubChem BioAssay AID2060506 (Molecular Pharmacology Branch, DTP, NCI, 2025).
pIC50: −log10 of the molar value.

Tested on: 598228-144-R-J1-PDC complex spheroid viability
Assay: Anticancer human tumor 598228-144-R-J1-PDC patient-derived serous endometrial adenocarcinoma cell line growth inhibition [GQUAD]
Conditions: for pIC50: curve of first compound; for viability, T/C: stronger effect = lower value; active = viability on the fitted dose curve at most 10% of control; inactive = the rest
Outline: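 Tumor cells were grown as complex spheroids with HUVEC endothelial cells and mesenchymal stem cells as stroma. G-quadruplex stabilizers were combined with targeted agents over half-log dilutions from near the clinical Cmax, or from 10 microM.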

[1] = second compound 0.0316 µM, first compound 0.0316 µM
[2] = second compound 0.0316 µM, first compound 0.1 µM
[3] = second compound 0.0316 µM, first compound 0.316 µM
[4] = second compound 0.0316 µM, first compound 1 µM
[5] = second compound 0.0316 µM, first compound 3.16 µM
[6] = second compound 0.0316 µM, first compound 10 µM
[7] = second compound 0.1 µM, first compound 0.0316 µM
[8] = second compound 0.1 µM, first compound 0.1 µM
[9] = second compound 0.1 µM, first compound 0.316 µM
[10] = second compound 0.1 µM, first compound 1 µM
[11] = second compound 0.1 µM, first compound 3.16 µM
[12] = second compound 0.1 µM, first compound 10 µM
[13] = second compound 0.316 µM, first compound 0.0316 µM
[14] = second compound 0.316 µM, first compound 0.1 µM
[15] = second compound 0.316 µM, first compound 0.316 µM
[16] = second compound 0.316 µM, first compound 1 µM
[17] = second compound 0.316 µM, first compound 3.16 µM
[18] = second compound 0.316 µM, first compound 10 µM
[19] = second compound 1 µM, first compound 0.0316 µM
[20] = second compound 1 µM, first compound 0.1 µM
[21] = second compound 1 µM, first compound 0.316 µM
[22] = second compound 1 µM, first compound 1 µM
[23] = second compound 1 µM, first compound 3.16 µM
[24] = second compound 1 µM, first compound 10 µM
[25] = second compound 3.16 µM, first compound 0.0316 µM
[26] = second compound 3.16 µM, first compound 0.1 µM
[27] = second compound 3.16 µM, first compound 0.316 µM
[28] = second compound 3.16 µM, first compound 1 µM
[29] = second compound 3.16 µM, first compound 3.16 µM
[30] = second compound 3.16 µM, first compound 10 µM
[31] = second compound 10 µM, first compound 0.0316 µM
[32] = second compound 10 µM, first compound 0.1 µM
[33] = second compound 10 µM, first compound 0.316 µM
[34] = second compound 10 µM, first compound 1 µM
[35] = second compound 10 µM, first compound 3.16 µM
[36] = second compound 10 µM, first compound 10 µM
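Note: spheroids exposed to the agents for one week before reading.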
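Throughout, for viability, T/C: percent of vehicle DMSO control viability so 100% = untreated growth.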

COc1cccc2c1C(=O)c1c(O)c3c(c(O)c1C2=O)CC(O)(C(=O)CO)CC3OC1CC(N)C(O)C(C)O1 (centres undefined) + Cc1[nH]c2ccc(F)cc2c1-c1nc2c3cccnc3c3ncccc3c2[nH]1
> 7.50: pIC50 (second compound 3.16 µM)
inactive: viability, T/C [1] 97.1% | viability, T/C [2] 81.6% | viability, T/C [3] 69.8% | viability, T/C [4] 42.8% | viability, T/C [5] 5.14% | viability, T/C [7] 88.7% | viability, T/C [8] 77.2% | viability, T/C [9] 78.6% | viability, T/C [10] 47% | viability, T/C [13] 84.7% | viability, T/C [14] 72.8% | viability, T/C [15] 74.7% | viability, T/C [16] 51.9% | viability, T/C [19] 67.3% | viability, T/C [20] 48.8% | viability, T/C [21] 54.3% | viability, T/C [22] 34.7% | viability, T/C [25] 38.9% | viability, T/C [26] 36.8% | viability, T/C [27] 31.8% | viability, T/C [28] 25.4% | viability, T/C [31] 57.1% | viability, T/C [32] 72.3% | viability, T/C [33] 49% | viability, T/C [34] 46.1%
active: viability, T/C [6] 0.27% | viability, T/C [11] 2.77% | viability, T/C [12] 0.42% | viability, T/C [17] 3.76% | viability, T/C [18] 1.38% | viability, T/C [23] 4.19% | viability, T/C [24] 1.39% | viability, T/C [29] 1.9% | viability, T/C [30] 1.11% | viability, T/C [35] 5.49% | viability, T/C [36] 0.68%
6.38: pIC50 (second compound 1 µM)
6.19: pIC50 (second compound 10 µM)
6.18: pIC50 (second compound 0.0316 µM)
6.05: pIC50 (second compound 0.1 µM)
5.98: pIC50 (second compound 0.316 µM)

COc1ccc([C@@H](O)c2cc(-c3ncnc4cc(N5CCOCC5)ccc34)c(F)cc2Cl)nn1 + Cc1[nH]c2ccc(F)cc2c1-c1nc2c3cccnc3c3ncccc3c2[nH]1
5.91: pIC50 (second compound 0.1 µM)
5.50: pIC50 (second compound 0.0316 µM)
> 7.50: pIC50 (second compound 3.16 µM)
6.95: pIC50 (second compound 10 µM)
5.89: pIC50 (second compound 0.316 µM)
6.65: pIC50 (second compound 1 µM)
inactive: viability, T/C [1] 96.8% | viability, T/C [2] 114% | viability, T/C [3] 87.8% | viability, T/C [4] 76.7% | viability, T/C [5] 50.4% | viability, T/C [6] 29.1% | viability, T/C [7] 112% | viability, T/C [8] 96% | viability, T/C [9] 62.6% | viability, T/C [10] 59.5% | viability, T/C [11] 35% | viability, T/C [12] 26% | viability, T/C [13] 82.2% | viability, T/C [14] 71.5% | viability, T/C [15] 72.8% | viability, T/C [16] 50.5% | viability, T/C [17] 40.8% | viability, T/C [18] 32.4% | viability, T/C [19] 64.2% | viability, T/C [20] 67.4% | viability, T/C [21] 37.4% | viability, T/C [22] 36.9% | viability, T/C [23] 27.4% | viability, T/C [24] 18.8% | viability, T/C [25] 48.3% | viability, T/C [26] 44.9% | viability, T/C [27] 34.1% | viability, T/C [28] 21.1% | viability, T/C [29] 18.9% | viability, T/C [30] 15.2% | viability, T/C [31] 61.5% | viability, T/C [32] 49.6% | viability, T/C [33] 43.9% | viability, T/C [34] 31.1% | viability, T/C [35] 25.6% | viability, T/C [36] 22.5%
